Columns and labels:
Assay type in all cases: biochemical
[1] = target: T1, CDK1/cyclinB1 (Homo sapiens, UniProt P06493); experiment: Cyclin-dependent kinase activity assay (continuous ATP coupling assay), CDK1/cyclinB1; conditions: CDK1/cyclinB1 10 nM, ATP 200 μM, Histone1 copeptide 100 μM, 15 min preincubation, pH 7.5, 1% DMSO
T1 construct: purchased Carna Biosciences 04-102
How it was run: (§1)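 PK/LDH-coupled continuous assay, ATP at each kinase's Km, Tris pH 7.5 with 1% DMSO final; enzyme preincubated 15 min with compound (10 μM to 0.05 nM, 1:3), NADH fluorescence decrease (ex 340/em 460) gave velocities. IC50 by 4-variable fit; Ki by quadratic/Morrison fit.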

[2] = target: T2, CDK2/cyclinE1 (Homo sapiens, UniProt P24941); experiment: Cyclin-dependent kinase activity assay (continuous ATP coupling assay), CDK2/cyclinE1; conditions: CDK2/cyclinE1 5 nM, ATP 300 μM, Rb copeptide 100 μM, 15 min preincubation, pH 7.5, 1% DMSO
T2 construct: purchased Carna Biosciences 04-165
How it was run: as §1

[3] = target: T3, CDK4/cyclinD3 (Homo sapiens, UniProt P11802); experiment: Cyclin-dependent kinase activity assay (continuous ATP coupling assay), CDK4/cyclinD3; conditions: CDK4/cyclinD3 60 nM, ATP 500 μM, Rb copeptide 500 μM, 15 min preincubation, pH 7.5, 1% DMSO
T3 construct: purchased Carna Biosciences 04-105
How it was run: as §1

[4] = target: T4, CDK6/cyclinD3 (Homo sapiens, UniProt Q00534); experiment: Cyclin-dependent kinase activity assay (continuous ATP coupling assay), CDK6/cyclinD3; conditions: CDK6/cyclinD3 25 nM, ATP 500 μM, Rb copeptide 500 μM, 15 min preincubation, pH 7.5, 1% DMSO
T4 construct: purchased Carna Biosciences 04-107
How it was run: as §1

T3 sequence (P11802 whole entry): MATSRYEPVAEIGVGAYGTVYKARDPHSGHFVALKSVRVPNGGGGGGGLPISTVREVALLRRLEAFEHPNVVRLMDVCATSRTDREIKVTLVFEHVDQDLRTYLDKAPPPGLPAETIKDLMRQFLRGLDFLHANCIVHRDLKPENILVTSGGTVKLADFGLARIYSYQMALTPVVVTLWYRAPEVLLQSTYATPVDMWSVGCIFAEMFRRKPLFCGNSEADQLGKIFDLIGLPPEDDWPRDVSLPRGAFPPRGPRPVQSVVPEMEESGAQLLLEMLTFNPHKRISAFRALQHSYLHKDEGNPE
T3 sequence (P30281 whole entry partner): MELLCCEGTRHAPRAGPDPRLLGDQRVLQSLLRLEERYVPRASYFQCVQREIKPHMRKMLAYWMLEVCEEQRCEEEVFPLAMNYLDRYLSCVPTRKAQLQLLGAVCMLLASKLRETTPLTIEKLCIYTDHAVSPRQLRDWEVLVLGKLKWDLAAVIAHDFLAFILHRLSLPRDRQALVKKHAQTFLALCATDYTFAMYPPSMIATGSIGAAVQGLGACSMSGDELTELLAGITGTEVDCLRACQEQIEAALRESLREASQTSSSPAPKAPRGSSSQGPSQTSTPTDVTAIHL
T1 sequence (P06493 whole entry): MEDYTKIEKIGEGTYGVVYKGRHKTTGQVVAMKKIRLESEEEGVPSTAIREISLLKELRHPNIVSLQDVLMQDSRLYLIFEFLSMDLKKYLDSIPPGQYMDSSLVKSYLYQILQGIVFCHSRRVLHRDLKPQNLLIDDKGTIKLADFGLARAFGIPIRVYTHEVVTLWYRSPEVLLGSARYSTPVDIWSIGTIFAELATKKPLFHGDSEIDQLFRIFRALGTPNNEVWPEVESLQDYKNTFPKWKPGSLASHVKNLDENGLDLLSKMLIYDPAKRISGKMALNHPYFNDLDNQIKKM
T1 sequence (P14635 whole entry partner): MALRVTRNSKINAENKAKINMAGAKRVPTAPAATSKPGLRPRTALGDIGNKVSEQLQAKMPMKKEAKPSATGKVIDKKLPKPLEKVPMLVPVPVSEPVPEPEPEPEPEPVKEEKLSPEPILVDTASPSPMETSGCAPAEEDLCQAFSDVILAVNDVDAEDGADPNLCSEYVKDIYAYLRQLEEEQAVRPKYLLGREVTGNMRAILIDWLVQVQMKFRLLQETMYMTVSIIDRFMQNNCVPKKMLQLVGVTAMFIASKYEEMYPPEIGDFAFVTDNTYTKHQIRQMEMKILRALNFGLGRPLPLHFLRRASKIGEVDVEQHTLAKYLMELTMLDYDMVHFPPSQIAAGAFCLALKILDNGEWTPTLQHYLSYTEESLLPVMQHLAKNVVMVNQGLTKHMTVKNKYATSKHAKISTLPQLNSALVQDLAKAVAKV
T4 sequence (Q00534 whole entry): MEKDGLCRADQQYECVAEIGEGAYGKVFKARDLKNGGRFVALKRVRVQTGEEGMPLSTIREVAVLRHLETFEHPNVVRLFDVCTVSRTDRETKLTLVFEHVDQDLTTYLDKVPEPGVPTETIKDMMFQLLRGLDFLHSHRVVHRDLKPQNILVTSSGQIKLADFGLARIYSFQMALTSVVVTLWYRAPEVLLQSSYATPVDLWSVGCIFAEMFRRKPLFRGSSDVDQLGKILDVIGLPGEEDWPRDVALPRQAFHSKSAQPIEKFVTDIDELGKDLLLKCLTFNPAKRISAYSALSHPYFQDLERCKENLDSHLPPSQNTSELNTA
T4 sequence (P30281 whole entry partner): as the sequence (P30281 whole entry partner) above

Row | IC50 [1] | IC50 [2] | IC50 [3] | IC50 [4] | SMILES
1 | ≥ 100 nM | ≤ 10 nM | ≥ 100 nM | ≥ 100 nM | CC(C)(CO)NS(=O)(=O)c1ccc(Nc2ncc(C(F)(F)F)c(-n3cccn3)n2)cc1 [Example 134]
2 | ≥ 100 nM | ≤ 10 nM | ≥ 100 nM | ≥ 100 nM | O=S(=O)(NC1(CO)CC1)c1ccc(Nc2ncc(C(F)(F)F)c(-n3cccn3)n2)cc1 [Example 135]
3 | ≥ 100 nM | ≤ 10 nM | ≥ 100 nM | ≥ 100 nM | O=S(=O)(NCCO)c1ccc(Nc2ncc(C(F)(F)F)c(-n3cccn3)n2)cn1 [Example 136, N-(2-hydroxyethyl)-5-[[4-pyrazol-1-yl-5-(trifluoromethyl)pyrimidin-2-yl]amino]pyridine-2-sulfonamide]
4 | ≥ 100 nM | ≥ 100 nM | ≥ 100 nM | ≥ 100 nM | O=S(=O)(NCCO)c1ccc(Nc2ncc(C(F)(F)F)c(-n3cccn3)n2)nc1 [Example 137]
5 | ≥ 100 nM | ≤ 10 nM | ≥ 100 nM | ≥ 100 nM | O=C(O)CNS(=O)(=O)c1ccc(Nc2ncc(C(F)(F)F)c(-n3cccn3)n2)cc1 [Example 138, ((4-((4-(1H-pyrazol-1-yl)-5-(trifluoromethyl)pyrimidin-2-yl)amino)phenyl)sulfonyl)glycine]

— patent publication US20260308145A1, “CDK2 INHIBITORS AND METHODS OF USING SAME” (Shenzhen lonova Life Science Co., Ltd., priority 2023, published 2026)
